Laboratory results published in US20220304992A1, “METHODS OF REJUVENATING AGED TISSUE BY INHIBITING 15-HYDROXYPROSTAGLANDIN DEHYDROGENASE (15-PGDH)” (The Board of Trustees of the Leland Stanford Junior …, priority 2019, published 2022).
Entries after “also recorded” stand apart in the source; their conditions may differ.

Legend:
[1] = system: aged mice with PTGDS knockdown; assay: SW treatment of aged mice with AAV9 shRNA knockdown of PTGDS; format: in vivo, mouse; conditions: aged muscles, SW one month
Description: Middle aged (18-20 mo.) and aged (>24 mo.) mice C57BL/6 were obtained the US National Institute on Aging (NIA) for aged muscle studies, and young (2-4 mo.) wild-type C57BL/6 mice from Jackson Laboratory. […] Time and distance to exhaustion was performed as previously described (4) for SW-treated mice and their controls.
Overexpression of Hpgd (15-PGDH) was achieved by integrating AAV9 under CMV promoter and with eGFP under IRES (AA9-CMV-m-HPGD-IRES-eGFP) (Vector Biolabs). The control virus was AAV9-tMCK-eGFP-WPRE.
The peak isometric torque (N·mm) of the ankle plantarflexors was assessed as previously described (21, 22). Briefly, the foot of anesthetized mice was placed on a footplate attached to a servomotor (model 300C-LR; Aurora Scientific). Two Pt-Ir electrode needles (Aurora Scientific) were inserted percutaneously and subcutaneously over the tibial nerve, just posterior/posterior-medial to the knee. The ankle joint was secured at a 90° angle. The peak isometric torque was achieved by varying the current delivered to the tibial nerve at a frequency of 200 Hz and a 0.1—ms square wave pulse. We performed three tetanic measurements on each muscle, with 1 min recovery between each measurement. Data were collected with the Aurora Scientific Dynamic Muscle Data Acquisition and Analysis Software.

[2] = system: mdx4cv/mTRKO(G2) mice; assay: Plantar flexion tetanic force in Duchenne muscular dystrophy mouse model; format: in vivo; conditions: 8 month old mice, 4 weeks of treatment
Description: For ABT-263 treatments, 20 month old C57/B16 mice were treated with vehicle (ethanol:polyethylene glycol 400:Phosal 50 PG) or ABT-263 (in ethanol:polyethylene glycol 400:Phosal 50 PG) by oral gavage for 2 cycles of 1 week with a 2 week rest period between cycles as described previously (1). For the Duchenne muscular dystrophy (DMD) mouse model, we used 8-10 month old mdx4cv/mTRKO(G2) generated as previously described (2).
Time and distance to exhaustion was performed as previously described (4) for SW-treated mice and their controls (FIG. 3A).
The peak isometric torque (N·mm) of the ankle plantarflexors was assessed as previously described (8,9). Briefly, the foot of anesthetized mice was placed on a footplate attached to a servomotor (model 300C-LR; Aurora Scientific). Two Pt-Ir electrode needles (Aurora Scientific) […] subcutaneously over the tibial nerve, just posterior/posterior-medial to the knee. The ankle joint was secured at a 90° angle. The peak isometric torque was achieved by varying the current delivered to the tibial nerve at a frequency of 200 Hz and a 0.1-ms square wave pulse. We performed three tetanic measurements on each muscle, with 1 min recovery between each measurement. Data were collected with the Aurora Scientific Dynamic Muscle Data Acquisition and Analysis Software.

[3] = system: myofibers; assay: Myofiber cross-sectional area and fiber typing by immunofluorescence; format: in vivo, mouse; conditions: aged mice, 1 month
Description: We collected and prepared recipient Tibialis anterior (TA) or gastrocnemius (GA) muscle tissues for histology as previously described (5). We fixed transverse sections from muscles using 4% PFA, blocked and permeabilized using PBS/1% BSA/0.1% Triton X-100 and incubated with anti-LAMININ (Millipore, clone A5, catalog #05-206, 1:200) and then with AlexaFluor secondary Antibodies (Jackson ImmunoResearch Laboratories, 1:200) or wheat germ agglutinin-Alexa 647 conjugate (WGA, Thermo Fisher Scientific). We counterstained nuclei with DAPI (Invitrogen).
We acquired images on a Zeiss 510 laser scanning confocal microscope (Carl Zeiss Microimaging) with 40x/0.9N.A. objective to capture multiple consecutive focal planes or using the KEYENCE BZ-X700 all-in-one fluorescence microscope (Keyence) with 20x/0.75 N.A. objectives. We analyzed the myofiber area using the Keyence Advanced Analysis Software. For cross sectional area the maximum cross sectional area of the muscle was quantified or at least 10 fields of LAMININ-stained myofiber cross-sections encompassing over 400 myofibers were captured for each mouse as above. […] The researchers performing the imaging acquisition and scoring were unaware of treatment condition given to sample groups analyzed. […]
Images were acquired using KEYENCE BZ-X700 all in one fluorescence microscope with 20x/0.75 NA. objectives and individual fields were stitched and analyzed using Keyence Advanced Analysis Software.
For cultured myotubes we performed fixation using 4% PFA, blocking and permeabilization using PBS/1% BSA/0.1% Triton X-100 and staining with primary antibodies anti-MYH (Thermo Fisher Scientific, catalog #14-6503-82, clone MF-20, 1:500) and then with AlexaFluor secondary Antibodies (Jackson ImmunoResearch Laboratories, 1:500). […] We acquired images using the KEYENCE BZ-X700 all-in-one fluorescence microscope (Keyence) with 20x/0.75 N.A. objectives. We analyzed the fiber area using the Keyence Advanced Analysis Software. […] The researchers performing the imaging acquisition and scoring were unaware of treatment condition given to sample groups analyzed.

[4] = system: bone marrow, colon, lung, and liver; conditions: cited from earlier work
[5] = target: T1, 15-PGDH (Mus musculus, UniProt Q8VCC1); assay: 15-PGDH kinetic assay (PicoProbe kit) in muscle lysates of treated mice; format: in vivo; conditions: aged mice, daily i.p., 1 month
T1 construct: 15-PGDH specific enzymatic activity assayed in muscle tissues of vehicle and SW treated aged muscles; from tissue; host or cells: skeletal muscle lysates of aged C57BL/6 mice
T1 sequence (Q8VCC1 whole entry): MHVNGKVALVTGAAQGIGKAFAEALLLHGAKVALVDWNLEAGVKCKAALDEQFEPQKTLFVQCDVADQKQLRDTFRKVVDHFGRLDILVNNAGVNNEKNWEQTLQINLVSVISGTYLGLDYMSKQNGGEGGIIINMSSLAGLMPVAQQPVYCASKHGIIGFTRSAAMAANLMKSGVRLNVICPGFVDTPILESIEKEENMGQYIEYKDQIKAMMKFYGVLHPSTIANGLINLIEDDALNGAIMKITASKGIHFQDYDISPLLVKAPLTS
Description: 15-PGDH activity was analyzed in tissue lysates using the BioVision PicoProbe 15-PGDH Activity Assay Kit (Cat # K562) according to the protocol of the manufacturer. Briefly, tissues were isolated and snap frozen in liquid nitrogen.

[6] = system: pFOXO; assay: Immunoblots of muscle lysates from aged vehicle and SW treated mice; format: in vivo, mouse; conditions: aged muscles, SW vs vehicle
Description: Total lysates were prepared using lysis buffer (50 mM Tris-HCl pH 7.5, 150 mM NaCl, 4 mM CaCl, 1.5% Triton X-100, protease inhibitors and micrococcal nuclease). For tissue extracts, lysates were homogenized a FastPrep 24 homogenizer (MP Biomedicals) for 40 seconds at a speed of 6 m/s. We used the following antibodies: 15-PGDH (Santa Cruz Biotechnology, cat # sc-271418); phospho-AKT (Ser 473) (Cell Signaling cat #4060), AKT (Cell signaling cat #2920); phospho-FoxO1 (Thr24)/FoxO3a (Thr32) Antibody (Cell Signaling cat #9464T); Foxo3a (Cell Signaling cat #2497); phospho-CREB (Ser133) (Cell Signaling cat #9198S); phospho-S6 ribosomal protein (Ser235/236) (Cell Signaling cat#4858); SMC1 (Bethyl Laboratories cat# A300-055A-T). We used HRP conjugated secondary antibodies and developed by incubating the membranes with ECL Western Blotting Substrate (Nacalai USA) and imaging using the ChemiDoc Imaging System (BioRad).

For `CCCC[S+]([O-])c1sc2nc(-c3cccs3)cc(-c3ccccc3)c2c1N` (stereo not shown) [SW033291, 2-(butylsulfinyl)-4-phenyl-6-(thiophen-2-yl)thieno[2,3-b]pyridin-3-amine], the endurance [1] was “increase”, the muscle force [1] was “increase” and the muscle mass [1] was “increase”. For the same compound, the “increase in muscle strength compared to vehicle treated controls” value [2] was 22%, the “cross-sectional area of glycolytic (type IIb) fibers” value [3] was “increase” and the “cross-sectional area of oxidative (type IIa) fibers” value [3] was “increase”. The myofiber cross-sectional area ([3]; daily i.p., listed as SW) was “larger; also recorded: significantly augmented”, the “increase of PGE2 levels in vivo” value [4] was 2 fold and the “15-PGDH specific activity in muscle” value [5] was “significantly reduced”. The pFOXO [6] was “increased”.
